Tested on: human cardiomyocytes

COc1cccc2c1C(=O)c1c(O)c3c(c(O)c1C2=O)C[C@@](O)(C(=O)CO)C[C@@H]3O[C@H]1C[C@H](N)[C@H](O)[C@H](C)O1 [free doxorubicin, (8S,10S)-10-(4-amino-5 hydroxy-6-methyl-tetrahydro-2H-pyran-2-yloxy)-6,8,11-trihydroxy-8-(2-hydroxyacetyl)-1-methoxy-7,8,9,10-tetrahydrotetracene-5,12-dione]
level of uptake into human cardiomyocytes: relatively much higher compared to both MM-302 and untargeted pegylated liposomal doxorubicin

Reference: patent US9913901B2, “Combination therapy for treating HER2-positive cancers” (Merrimack Pharmaceuticals, Inc., priority 2012, dated 2018)
